Results on 2 compounds are retold here after patent US12508259B2, “Pharmaceutical formulations containing Nalbuphine” (Humanwell Pharmaceutical US, Inc., priority 2022, dated 2025).

A short description of data set [1]: Nalbuphine solubility in different acids (overnight stirring, HPLC). The following applies: approx. 0.5 mmol/mL acid; for solubility: aqueous buffer, thermodynamic from solid, Nalbuphine base Solubility. In kind it is physicochemical. On the procedure:
A preliminary assessment of Nalbuphine solubility in different acids was performed. After overnight continuous stirring, the suspensions were centrifuged, and supernatants were filtered through a 0.2 μm filter.

For data set [2] the following is noted: commercially available Nalbuphine hydrochloride; cited from earlier work.

≈ marks a conversion by molar mass, not a printed value. Where a name gives a salt, the structure may show the parent alone. Read-outs that look alike come from different tables or passages of the source.

As to `Oc1ccc2c3c1O[C@H]1[C@@H](O)CC[C@@]4(O)[C@@H](C2)N(CC2CCC2)CC[C@]314` [Nalbuphine base, N-cyclobutylmethyl-14-hydroxydihydronormorphine], the solubility in data set [1] (DL-malic acid solution, in DL-Malic acid) is 630 mM (≈ 225 mg/mL); in data set [1] (acetic acid solution, in Acetic acid) it was 420 mM (≈ 150 mg/mL); in data set [1] (citric acid solution, in Citric acid) it was above 1000 mM; in data set [1] (hydrochloric acid solution, in Hydrochloride acid), 90 mM (≈ 32.2 mg/mL); in data set [1] (lactic acid solution, in Lactic acid), 460 mM (≈ 164 mg/mL); in data set [1] (phosphoric acid solution, in Phosphoric acid), 530 mM (≈ 189 mg/mL). The solubility in data set [1] (succinic acid solution, in Succinic acid) is 480 mM (≈ 172 mg/mL); in data set [1] (sulfuric acid solution, in Sulfuric acid), above 1000 mM; in data set [1] (tartaric acid solution, in Tartaric acid), 930 mM (≈ 332 mg/mL). Also, the results for the “Nalbuphine base Solubility” value in data set [1] (in Citric acid) and in data set [1] (in Sulfuric acid) were 1070 mM and around 1120 mM, respectively.
`Oc1ccc2c3c1O[C@H]1[C@@H](O)CC[C@@]4(O)[C@@H](C2)N(CC2CCC2)CC[C@]314` [Nalbuphine hydrochloride]: in data set [2], the solubility entry is “approximately 30 mg/mL”.

By solubility is commonly meant how much of the substance goes into solution per volume.
